Source: the supplement of paper PMC10307832

Columns and labels:
Experiment in all cases: relative viability (nuclei count vs DMSO), 5 days (fraction); higher = more cells survive
OSI-027 + Decitabine = compound: COc1cccc2cc(-c3nc([C@H]4CC[C@H](C(=O)O)CC4)n4ncnc(N)c34)[nH]c12 [OSI-027] + Nc1ncn([C@H]2C[C@H](O)[C@@H](CO)O2)c(=O)n1 [Decitabine] (partner 2 µM)
In short: (§1)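 Lung cancer cell lines in 1536-well plates were dosed by pin tool the day after seeding, either with one drug alone or with a fixed anchor-drug dose plus five library-drug doses (not always all listed) in √10 steps. After 5 days, cells were fixed and their nuclei stained in one step (final 0.05% Triton X-100, 1% formaldehyde, 1 ug/ml Hoechst), then counted on 4× images. Relative viability is the nuclei count in treated wells divided by that in vehicle wells. Values are medians of duplicate plates.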

Vemurafenib + Navitoclax = compound: CCCS(=O)(=O)Nc1ccc(F)c(C(=O)c2c[nH]c3ncc(-c4ccc(Cl)cc4)cc23)c1F [Vemurafenib] + CC1(C)CCC(c2ccc(Cl)cc2)=C(CN2CCN(c3ccc(C(=O)NS(=O)(=O)c4ccc(N[C@H](CCN5CCOCC5)CSc5ccccc5)c(S(=O)(=O)C(F)(F)F)c4)cc3)CC2)C1 [Navitoclax] (partner 0.5 µM)
In short: as §1

Alpelisib + Vorinostat = compound: Cc1nc(NC(=O)N2CCC[C@H]2C(N)=O)sc1-c1ccnc(C(C)(C)C(F)(F)F)c1 [Alpelisib] + O=C(CCCCCCC(=O)Nc1ccccc1)NO [Vorinostat] (partner 1 µM)
In short: as §1

Alpelisib + Bortezomib = compound: Cc1nc(NC(=O)N2CCC[C@H]2C(N)=O)sc1-c1ccnc(C(C)(C)C(F)(F)F)c1 [Alpelisib] + CC(C)C[C@H](NC(=O)[C@H](Cc1ccccc1)NC(=O)c1cnccn1)B(O)O [Bortezomib] (partner 0.002 µM)
In short: as §1

Cell Line | relative viability (OSI-027 + Decitabine; first compound 0.01 µM) | relative viability (OSI-027 + Decitabine; first compound 0.03162 µM) | relative viability (OSI-027 + Decitabine; first compound 0.1 µM) | relative viability (OSI-027 + Decitabine; first compound 0.3162 µM) | relative viability (OSI-027 + Decitabine; first compound 1 µM) | relative viability (Vemurafenib + Navitoclax; first compound 0.03162 µM) | relative viability (Vemurafenib + Navitoclax; first compound 0.1 µM) | relative viability (Vemurafenib + Navitoclax; first compound 1 µM) | relative viability (Alpelisib + Vorinostat; first compound 0.04 µM) | relative viability (Alpelisib + Vorinostat; first compound 0.1265 µM) | relative viability (Alpelisib + Vorinostat; first compound 0.4 µM) | relative viability (Alpelisib + Vorinostat; first compound 1.265 µM) | relative viability (Alpelisib + Vorinostat; first compound 4 µM) | relative viability (Alpelisib + Bortezomib; first compound 0.04 µM) | relative viability (Alpelisib + Bortezomib; first compound 0.1265 µM) | relative viability (Alpelisib + Bortezomib; first compound 0.4 µM) | relative viability (Alpelisib + Bortezomib; first compound 1.265 µM) | relative viability (Alpelisib + Bortezomib; first compound 4 µM) | relative viability (Vemurafenib + Navitoclax; first compound 0.3162 µM)
NCI-H2405 | 0.688 | 0.74 | 0.709 | 0.634 | 0.451 | 0.836 | 0.812 | 0.864 | 1.13 | 1.06 | 1.06 | 0.682 | 0.59 | 0.997 | 0.835 | 0.927 | 0.83 | 0.696 | –
NCI-H3122 | 0.415 | 0.547 | 0.457 | 0.345 | 0.154 | 1.04 | 0.993 | 1.1 | 0.783 | 0.985 | 1.28 | 1.01 | 0.491 | 0.992 | 1.08 | 0.984 | 1.12 | 0.999 | 1.02
PC-3 [JPC-3] | 0.769 | 0.841 | 0.768 | 0.684 | 0.628 | 0.728 | – | 0.788 | 0.877 | 0.699 | 1.12 | 0.638 | 0.514 | 0.873 | 0.901 | 0.766 | 0.768 | 0.66 | 0.936
PC-14 | 0.208 | 0.278 | 0.239 | 0.231 | 0.217 | 0.915 | – | 0.937 | 0.771 | 0.681 | 0.717 | 0.432 | 0.624 | 0.801 | 0.882 | 1.16 | 0.773 | 0.747 | 0.977
RERF-LC-KJ | 0.617 | 0.664 | 0.668 | 0.538 | 0.426 | 1.05 | 1.04 | 1.29 | 0.634 | 0.707 | 0.754 | 0.504 | 0.548 | 1.1 | 1.08 | 1.32 | 1.01 | 0.934 | 0.977
